Data: article PMC11676896, “Protective Action of Cannabidiol on Tiamulin Toxicity in Humans—In Vitro Study” (International Journal of Molecular Sciences, 2024)
Counter-ions that a name gives are not always drawn.

Assays:
[1] = tested on: HEK 293 cells; experiment: BrdU assay (DNA synthesis); assay type: cell-based, human
Procedure: (§1) The cytotoxic potential of the veterinary drug and its mixtures with cannabidiol at two non-toxic concentrations: 1.56 and 3.15 µg/mL, on the human SH-SY5Y, HepG2 and HEK 293 cell lines was assessed by decreased viability of the cells within five biochemical endpoints: mitochondrial activity and lysosomal activity (MTT assays, reducing the tetrazolium dye MTT 3-(4,5-dimethylthiazol-2-yl)-2,5-diphenyltetrazolium bromide and neutral red uptake (NRU) assays), total protein content (TPC assay), cellular membrane integrity (leakage lactate dehydrogenase (LDH) assay) and DNA synthesis (the bromodeoxyuridine/5-bromo-2′-deoxyuridine incorporation into the DNA cells (BrdU) assay) after 72 h exposition. Data obtained from the measurement of the optical density in these assays were transformed to percentages in relation to the negative control group (0.1% DMSO in medium), considered to be 100% for the MTT, NRU, TPC and BrdU assays and 0% for the LDH assay. 1% Trition-X 100 solution in medium was used as the positive controls, (Figure 3).
(§2) The human neuroblastoma (SH-SY5H), hepatoma (HepG2) and kidney cells (HEK 293) cells were purchased from the American Type Culture Collection: ATCCCRL-2266,ATCC HB-8065 and ATCC CRL-1573, respectively. These cells were cultured in Minimum Essential Medium Eagle (MEME) (ATCC). The media were supplemented with 10% FBS, 1% L-glutamine (and 1% antibiotic solution (P4333 Sigma). The cells were maintained in 75 cm^2 cell culture flasks (NUNC) in a humidified incubator at 37 °C in an atmosphere of 5% CO2. The medium was refreshed every two or three days, and the cells were subcultured by 0.25% trypsin–0.02% EDTA after reaching 70–80% confluence. Single cell suspensions were prepared and adjusted to a density of 2 × 10^5 cell/mL^−1 (SH-SY5H), 1 × 10^5 cell/mL^−1 (HepG2) and 1 × 10^5 cell/mL^−1 (HEK-293). The cell suspension was transferred to 96-well plates (100 µL/well) or Lab-Tek chamber slides (8 wells) (Nunc) for staining and incubated for 24 h before the exposure to the studied compounds. Stock solutions of tiamulin fumarate and cannabidiol were prepared in DMSO and diluted with culture medium to obtain a concentration range from 1.56 to 200 µg/mL and 1.56 or 3.156 µg/mL, respectively. The selection of tiamulin concentrations was based on data from the literature and pilot studies. The final concentration of DMSO was 0.1% in the medium. The same final concentrations of the solvent and the 1% Trition-X 100 solution were used as the negative and positive controls, respectively. A total of 500 µM hydrogen peroxide (H2O2) in was used as the positive control in the DCFH assay. […] As a negative control, cultured cells were grown in the absence of studied compounds. Each concentration was tested in six replicates in three independent experiments. Cytotoxicity was assessed after 72 h of exposure of the cells to the compounds. The medium was not changed during the incubation time.
(§3) Cell proliferation was evaluated by BrdU assay using a Cell Proliferation ELISA, BrdU (colorimetric) kit (Roche, Switzerland), according to manufacturer’s instructions. Briefly, BrdU was incorporated in the place of thymidine into the DNA of cells under division. This BrdU was detected by an anti-BrdU antibody conjugated with peroxidase and the reaction product of the enzyme with the given substrate was quantified by measuring its absorbance. The absorbance (A) was measured at 370 nm and 492 nm in a Synergy 2 Multi-Mode Microplate Reader (BioTek® Instruments Inc., Winooski, VT, USA), using a blank as a reference.
(§4) This study was performed in three independent experiments. The obtained results are presented as mean values ± SD (standard deviation). The assessment of the cytotoxicity data used a one-way analysis of variance (ANOVA) followed by Dunnett’s post hoc test, which was applied to determine significance relative to the negative control. […]

[2] = tested on: HepG2 cells; experiment: BrdU assay (DNA synthesis); assay type: cell-based, human; conditions: HepG2, 72 h
Procedure: as §1, §2, §3, §4

[3] = tested on: SH-SY5Y cells; experiment: BrdU assay (DNA synthesis); assay type: cell-based, human; conditions: 72 h
Procedure: as §1, §2, §3, §4

[4] = tested on: HEK-293 cells; experiment: Cytotoxicity over the five assays (MTT, NRU, TPC, LDH, BrdU); assay type: cell-based; conditions: Homo sapiens, HEK293, 72 h, read-out: IC50 values, range over the five assays
Procedure: as §1
(§5) The human neuroblastoma (SH-SY5H), hepatoma (HepG2) and kidney cells (HEK 293) cells were purchased from the American Type Culture Collection: ATCCCRL-2266,ATCC HB-8065 and ATCC CRL-1573, respectively. These cells were cultured in Minimum Essential Medium Eagle (MEME) (ATCC). […] Cytotoxicity was assessed after 72 h of exposure of the cells to the compounds. […]

[5] = tested on: HepG2 cells; experiment: as above; assay type: cell-based; conditions: Homo sapiens, HepG2, 72 h, read-out: IC50 values, range over the five assays
Procedure: as §1, §5

[6] = tested on: HEK 293 cells; experiment: NRU assay (lysosomal activity); assay type: cell-based, human
Procedure: as §1
(§6) The human neuroblastoma (SH-SY5H), hepatoma (HepG2) and kidney cells (HEK 293) cells were purchased from the American Type Culture Collection: ATCCCRL-2266,ATCC HB-8065 and ATCC CRL-1573, respectively. These cells were cultured in Minimum Essential Medium Eagle (MEME) (ATCC). The media were supplemented with 10% FBS, 1% L-glutamine (and 1% antibiotic solution (P4333 Sigma). The cells were maintained in 75 cm^2 cell culture flasks (NUNC) in a humidified incubator at 37 °C in an atmosphere of 5% CO2. The medium was refreshed every two or three days, and the cells were subcultured by 0.25% trypsin–0.02% EDTA after reaching 70–80% confluence. Single cell suspensions were prepared and adjusted to a density of 2 × 10^5 cell/mL^−1 (SH-SY5H), 1 × 10^5 cell/mL^−1 (HepG2) and 1 × 10^5 cell/mL^−1 (HEK-293). The cell suspension was transferred to 96-well plates (100 µL/well) or Lab-Tek chamber slides (8 wells) (Nunc) for staining and incubated for 24 h before the exposure to the studied compounds. Stock solutions of tiamulin fumarate and cannabidiol were prepared in DMSO and diluted with culture medium to obtain a concentration range from 1.56 to 200 µg/mL and 1.56 or 3.156 µg/mL, respectively. […] Cytotoxicity was assessed after 72 h of exposure of the cells to the compounds. […]
(§7) This method is based on staining living cells with neutral red, which readily diffuses through the plasma membrane and accumulates in lysosomes. […] After 10 min of shaking, the absorbance of the dissolved NR was measured using a Synergy 2 Multi-Mode Microplate Reader (BioTek® Instruments Inc., Winooski, VT, USA) at 540 nm using a blank as a reference. Cytotoxicity was expressed as a percentage of the negative control (0.1% DMSO in medium). […]

[7] = tested on: SH-SY5Y cells; experiment: NRU assay (lysosomal activity); assay type: cell-based, human; conditions: 72 h
Procedure: as §1, §6, §7

[8] = Homo sapiens, read-out: inhibited concentration (IC50), BrdU

## C=C[C@]1(C)C[C@@H](OC(=O)CSCCN(CC)CC)[C@]2(C)[C@H](C)CC[C@]3(CCC(=O)[C@H]32)[C@@H](C)[C@@H]1O [T, tiamulin fumarate]
[1]; HEK-293, 72 h
  tiamulin concentration that inhibited DNA synthesis: 12.5 µg/mL
[1]; Homo sapiens, HEK293, 72 h, read-out: inhibited concentration (IC50), BrdU
  IC50: 14.6 ± 1.3 µg/mL
[2]
  tiamulin concentration that inhibited DNA synthesis: 25 µg/mL
[2]; [8]
  IC50: 13.9 ± 0.8 µg/mL
[3]
  tiamulin concentration that inhibited DNA synthesis: 6.25 µg/mL
[3]; [8]
  IC50: 9.9 ± 1.1 µg/mL
[4]
  IC50: 8.5 to 76.9 µg/mL
[5]
  IC50: 13.9 to 39.5 µg/mL
[6]; HEK-293, 72 h
  tiamulin concentration that inhibited lysosomal activity: 25 µg/mL
[6]; Homo sapiens, HEK293, 72 h, read-out: inhibited concentration (IC50), NRU
  IC50: 34.5 ± 1.1 µg/mL
[7]; significant (p ≤ 0.05) vs negative control
  tiamulin concentration that inhibited lysosomal activity: 1.56 µg/mL
[7]; Homo sapiens, read-out: inhibited concentration (IC50), NRU
  IC50: 2.1 ± 0.4 µg/mL
